Measurements reported in patent publication US8785488B2 (Exelixis Patent Company LLC, priority 2009, dated 2014).
pEC50: −log10 of the molar value.

What was measured:
h-TGR5 = target: T1, h-TGR5 (Homo sapiens, UniProt Q8TDU6); test: TGR5 cAMP Assay using Cisbio cAMP Dynamic2 htrf kit (hTGR5CRE-luc HEK 293 cells); type: cell-based; details: h-TGR5 cAMP EC50, Table 1; read-out: cAMP (EC50)
T1 construct: expressed in transfected cells
T1 sequence (Q8TDU6 1-330): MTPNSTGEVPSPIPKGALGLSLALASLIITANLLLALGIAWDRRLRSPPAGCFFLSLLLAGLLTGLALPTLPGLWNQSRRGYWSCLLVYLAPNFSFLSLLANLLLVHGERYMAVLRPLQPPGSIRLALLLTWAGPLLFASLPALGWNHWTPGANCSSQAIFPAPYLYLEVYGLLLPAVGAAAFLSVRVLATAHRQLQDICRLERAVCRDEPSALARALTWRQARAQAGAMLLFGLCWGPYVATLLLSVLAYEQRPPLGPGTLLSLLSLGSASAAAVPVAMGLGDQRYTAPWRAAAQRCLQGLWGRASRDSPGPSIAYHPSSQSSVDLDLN
Outline: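 […], 4000 hTGR5CRE-luc HEK 293 cells per well, with 0.5 mM IBMX and d2-cAMP, were incubated 30 min at room temperature with compounds in 8-point half-log series, in quadruplicate.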

human TGR5 (h-TGR5) = target: T2, human TGR5 (h-TGR5) (Homo sapiens, UniProt Q8TDU6); test: TGR5/CRE-Luciferiase Assay (HEK 293 hTGR5/CRE-Luc cells); type: cell-based; details: h-TGR5 CRE-Luc EC50, Table 1; read-out: CRE-Luc (EC50)
T2 construct: expressed in transfected cells
T2 sequence (Q8TDU6 1-330): T1 sequence (Q8TDU6 1-330)
Outline: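 HEK293 cells stably carrying hTGR5 and a CRE-luciferase reporter were exposed to serially diluted compounds (diluted in DMEM with 5% DMSO) for 6 h. Cells were then lysed in luciferase buffer, luminescence was read, and EC50 values were derived from dose-response curves.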

Row | Structure (SMILES) | pEC50 (h-TGR5) | pEC50 (human TGR5 (h-TGR5))
1 | COc1cc(C(C)(C)c2cnc(SCc3ccc(S(=O)(=O)NC(=O)NN4CCCC4)cc3Cl)n2-c2ccc(F)cc2)ccc1Cl [3-chloro-4-({[5-{1-[4-chloro-3-(methyloxy)phenyl]-1-methylethyl}-1-(4-fluorophenyl)-1H-imidazol-2-yl]thio}methyl)-N-[(pyrrolidin-1-ylamino)carbonyl]benzenesulfonamide] | 6.00 to 7.00 | 6.00 to 7.00
2 | CC(C)(c1ccc(S(N)(=O)=O)c(Cl)c1)c1cnc(SCc2ccc(S(=O)(=O)NC(=O)NN3CCCC3)cc2Cl)n1-c1ccc(F)cc1 [4-({[5-{1-[4-(aminosulfonyl)-3-chlorophenyl]-1-methylethyl}-1-(4-fluorophenyl)-1H-imidazol-2-yl]thio}methyl)-3-chloro-N-[(pyrrolidin-1-ylamino)carbonyl]benzenesulfonamide] | 6.00 to 7.00 | 6.00 to 7.00
3 | COc1ccc(C(C)(C)c2cnc(SCc3ccc(S(=O)(=O)NC(=O)NC(C)C)cc3Cl)n2-c2ccc(F)cc2)cc1Cl [3-chloro-4-({[5-{1-[3-chloro-4-(methyloxy)phenyl]-1-methylethyl}-1-(4-fluorophenyl)-1H-imidazol-2-yl]thio}methyl)-N-{[(1-methylethyl)amino]carbonyl}benzenesulfonamide] | 6.00 to 7.00 | 6.00 to 7.00
4 | COc1ccc(C(C)(C)c2cnc(SCc3ccc(S(=O)(=O)NC(=O)NN4CCCC4)cc3Cl)n2-c2ccc(F)c(C)c2)cc1Cl [3-chloro-4-({[5-{1-[3-chloro-4-(methyloxy)phenyl]-1-methylethyl}-1-(4-fluoro-3-methylphenyl)-1H-imidazol-2-yl]thio}methyl)-N-[(pyrrolidin-1-ylamino)carbonyl]benzenesulfonamide] | 6.00 to 7.00 | 6.00 to 7.00
5 | COc1ccc(C(C)(C)c2cnc(CNc3c(F)cccc3Cl)n2-c2ccc(F)cc2)cc1OC [N-{[5-{1-[3,4-bis(methyloxy)phenyl]-1-methylethyl}-1-(4-fluorophenyl)-1H-imidazol-2-yl]methyl}-2-chloro-6-fluoroaniline] | 6.00 to 7.00 | > 7.00
6 | CC(=O)NS(=O)(=O)c1ccc(CSc2ncc(C(C)(C)c3ccc(Cl)c(Cl)c3)n2-c2ccc(F)cc2)c(Cl)c1 [N-({3-chloro-4-[({5-[1-(3,4-dichlorophenyl)-1-methylethyl]-1-(4-fluorophenyl)-1H-imidazol-2-yl}thio)methyl]phenyl}sulfonyl)acetamide] | 6.00 to 7.00 | 6.00 to 7.00
7 | COc1cc(-n2c(C(C)(C)c3ccc(S(C)(=O)=O)cc3)cnc2SCc2ccc(S(=O)(=O)NC(=O)NN3CCCC3)cc2Cl)ccc1F [3-chloro-4-{[(1-[4-fluoro-3-(methyloxy)phenyl]-5-{1-methyl-1-[4-(methylsulfonyl)phenyl]ethyl}-1H-imidazol-2-yl)thio]methyl}-N-[(pyrrolidin-1-ylamino)carbonyl]benzenesulfonamide] | 5.00 to 6.00 | 6.00 to 7.00
8 | COc1cc(-n2c(C(C)(C)c3ccc(S(N)(=O)=O)cc3)cnc2SCc2c(F)cc(C(=O)O)cc2F)ccc1F [4-{[(5-{1-[4-(aminosulfonyl)phenyl]-1-methylethyl}-1-[4-fluoro-3-(methyloxy)phenyl]-1H-imidazol-2-yl)thio]methyl}-3,5-difluorobenzoic acid] | 6.00 to 7.00 | 6.00 to 7.00
9 | CC(C)(c1ccc(Cl)c(Cl)c1)c1cnc(SCc2c(F)cc(C(=O)O)cc2Cl)n1-c1ccc(F)c(OCCCO)c1 [3-chloro-4-{[(5-[1-(3,4-dichlorophenyl)-1-methylethyl]-1-{4-fluoro-3-[(3-hydroxypropyl)oxy]phenyl}-1H-imidazol-2-yl)thio]methyl}-5-fluorobenzoic acid] | 6.00 to 7.00 | 6.00 to 7.00
10 | CC(C)(c1ccc(C(F)F)c(F)c1)c1cnc(SCc2ccc(S(=O)(=O)NC(=O)NN3CCCC3)cc2Cl)n1-c1ccc(F)cc1 [3-chloro-4-({[5-{1-[4-(difluoromethyl)-3-fluorophenyl]-1-methylethyl}-1-(4-fluorophenyl)-1H-imidazol-2-yl]thio}methyl)-N-[(pyrrolidin-1-ylamino)carbonyl]benzenesulfonamide] | 6.00 to 7.00 | 6.00 to 7.00
11 | CC(C)(c1ccc(F)c(F)c1)c1cnc(SCc2ccc(S(=O)(=O)NC(=O)NN3CCCC3)cc2Cl)n1-c1ccc(F)cc1 [3-chloro-4-[({5-[1-(3,4-difluorophenyl)-1-methylethyl]-1-(4-fluorophenyl)-1H-imidazol-2-yl}thio)methyl]-N-[(pyrrolidin-1-ylamino)carbonyl]benzenesulfonamide] | 5.00 to 6.00 | 6.00 to 7.00
12 | Cc1cc(-n2c(C(C)(C)c3ccc(F)c(F)c3)cnc2SCc2ccc(S(=O)(=O)NC(=O)NN3CCCC3)cc2Cl)ccc1F [3-chloro-4-[({5-[1-(3,4-difluorophcnyl)-1-methylethyl]-1-(4-fluoro-3-methylphenyl)-1H-imidazol-2-yl}thio)methyl]-N-[(pyrrolidin-1-ylamino)carbonyl]benzenesulfonamide] | 5.00 to 6.00 | 6.00 to 7.00
13 | COc1cc(C(C)(C)c2cnc(SCc3ccc(S(=O)(=O)NC(=O)NN4CCCC4)cc3Cl)n2-c2ccc(F)c(F)c2)ccc1Cl [3-chloro-4-({[5-{1-[4-chloro-3-(methyloxy)phenyl]-1-methylethyl}-1-(3,4-difluorophenyl)-1H-imidazol-2-yl]thio}methyl)-N-[(pyrrolidin-1-ylamino)carbonyl]benzenesulfonamide] | 6.00 to 7.00 | 6.00 to 7.00

Further lines, results first:

Row | pEC50 (h-TGR5) | pEC50 (human TGR5 (h-TGR5)) | Structure (SMILES)
14 | > 7.00 | > 7.00 | COc1cc(C(C)(C)c2cnc(SCc3c(F)cc(-c4n[nH]c(=O)o4)cc3Cl)n2-c2ccc(F)cc2)ccc1Cl [5-[3-chloro-4-({[5-{1-[4-chloro-3-(methyloxy)phenyl]-1-methylethyl}-1-(4-fluorophenyl)-1H-imidazol-2-yl]thio}methyl)-5-fluorophenyl]-1,3,4-oxadiazol-2(3H)-one]
15 | > 7.00 | 6.00 to 7.00 | COc1cc(C(C)(C)c2cnc(SCc3ccc(C(=O)O)c(F)c3)n2-c2ccc(F)cc2)ccc1Cl [4-({[5-{1-[4-chloro-3-(methyloxy)phenyl]-1-methylethyl}-1-(4-fluorophenyl)-1H-imidazol-2-yl]thio}methyl)-2-fluorobenzoic acid]
16 | > 7.00 | > 7.00 | COc1cc(C(C)(C)c2cnc(SCc3c(F)cc(N)cc3Cl)n2-c2ccc(F)cc2)ccc1Cl [3-chloro-4-({[5-{1-[4-chloro-3-(methyloxy)phenyl]-1-methylethyl}-1-(4-fluorophenyl)-1H-imidazol-2-yl]thio}methyl)-5-fluoroaniline]
17 | > 7.00 | > 7.00 | COc1cc(C(C)(C)c2cnc(SCc3c(F)cc(C(=O)N[C@H](CCCNC(=N)N)C(=O)O)cc3Cl)n2-c2ccc(F)cc2)ccc1Cl [N-2-{[3-chloro-4-({[5-{1-[4-chloro-3-(methyloxy)phenyl]-1-methylethyl}-1-(4-fluorophenyl)-1H-imidazol-2-yl]thio}methyl)-5-fluorophenyl]carbonyl}-D-arginine]
18 | > 7.00 | > 7.00 | COc1ccc(C(C)(C)c2cnc(SCc3c(F)cc(C#N)cc3F)n2-c2ccc(F)cc2)cc1Cl [4-({[5-{1-[3-chloro-4-(methyloxy)phenyl]-1-methylethyl}-1-(4-fluorophenyl)-1H-imidazol-2-yl]thio}methyl)-3,5-difluorobenzonitrile]
19 | > 7.00 | > 7.00 | COc1cc(C(C)(C)c2cnc(SCc3c(F)cc(OCCNC(=N)N)cc3F)n2-c2ccc(F)cc2)ccc1F [1-(2-{[3,5-difluoro-4-({[5-{1-[4-fluoro-3-(methyloxy)phenyl]-1-methylethyl}-1-(4-fluorophenyl)-1H-imidazol-2-yl]thio}methyl)phenyl]oxy}ethyl)guanidine]
20 | > 7.00 | > 7.00 | COc1cc(C(C)(C)c2cnc(SCc3ccc(C#CCNC(=N)N)c(C(=O)O)c3)n2-c2ccc(F)cc2)ccc1Cl [2-(3-{[amino(imino)methyl]amino}prop-1-yn-1-yl)-5-({[5-{1-[4-chloro-3-(methyloxy)phenyl]-1-methylethyl}-1-(4-fluorophenyl)-1H-imidazol-2-yl]thio}methyl)benzoic acid]
21 | > 7.00 | > 7.00 | COc1cc(-n2c(C(C)(C)c3ccc(S(N)(=O)=O)c(Cl)c3)cnc2SCc2ccc(C(=O)NCCC(=O)O)cc2F)ccc1F [N-[(4-{[(5-{1-[4-(aminosulfonyl)-3-chlorophenyl]-1-methylethyl}-1-[4-fluoro-3-(methyloxy)phenyl]-1H-imidazol-2-yl)thio]methyl}-3-fluorophenyl)carbonyl]-beta-alanine]
22 | > 7.00 | > 7.00 | COc1cc(C(C)(C)c2cnc(SCc3ccc(C(=O)NCCS(=O)(=O)O)cc3F)n2-c2ccc(F)cc2)ccc1Cl [2-({[4-({[5-{1-[4-chloro-3-(methyloxy)phenyl]-1-methylethyl}-1-(4-fluorophenyl)-1H-imidazol-2-yl]thio}methyl)-3-fluorophenyl]carbonyl}amino)ethanesulfonic acid]
23 | > 7.00 | > 7.00 | COc1cc(-n2c(C(C)(C)c3ccc(Cl)c(Cl)c3)cnc2SCc2c(F)cc(C(=O)O)cc2Cl)ccc1F [3-chloro-4-[({5-[1-(3,4-dichlorophenyl)-1-methylethyl]-1-[4-fluoro-3-(methyloxy)phenyl]-1H-imidazol-2-yl}thio)methyl]-5-fluorobenzoic acid]
